Key:
Format in all cases: cell-based
bacteria [1] = assay: drug sensitivity test, turbidity measurement of the well after 18 hours of culture; conditions: turbidity after 18 hours from start of culture
Text: In a drug sensitivity test for bacteria, it is important to measure properties of bacteria and increase or decrease in the number of bacteria, and in a third embodiment, for example, an example applied to the drug sensitivity test will be described. Also in the third embodiment, the fine particle testing apparatus 100 described in the first embodiment can be used. However, the sample solution 108 contains bacteria, a medium component necessary for growth of the bacteria, and an antimicrobial agent to be tested. The fine particle testing apparatus 100 is temperature-adjusted to a temperature suitable for growth of the bacteria, for example, 37° C. […]
Here, the sensitivity of this bacterium to ampicillin/sulbactam is found to be “proliferation” at a concentration of 0.5/0.25 μg/mL and “suppression” at a concentration of 32/16 μg/mL by turbidity measurement of the well after 18 hours from the start of culture. […] This example has shown that proliferation/suppression is determined at two concentrations of the antimicrobial agent, but actually, the concentration of the drug is more finely changed to determine proliferation/suppression. The minimum antimicrobial agent concentration is referred to as minimum inhibitory concentration (MIC), and the MIC is preferably calculated based on the result of proliferation/suppression. […]

bacteria [2] = assay: drug sensitivity test, bacterial area value from time-series microscopic images (image processing of first embodiment); conditions: FIG. 9
Text: (§1) In a drug sensitivity test for bacteria, it is important to measure properties of bacteria and increase or decrease in the number of bacteria, and in a third embodiment, for example, an example applied to the drug sensitivity test will be described. Also in the third embodiment, the fine particle testing apparatus 100 described in the first embodiment can be used. However, the sample solution 108 contains bacteria, a medium component necessary for growth of the bacteria, and an antimicrobial agent to be tested. The fine particle testing apparatus 100 is temperature-adjusted to a temperature suitable for growth of the bacteria, for example, 37° C. Further, a plate having 96 holes or 384 holes can be used as the testing plate 102.
FIG. 9 is a diagram illustrating a relationship of the area of a bacterial region corresponding to the sum of area values of fine particles obtained by executing the processing of steps 200 to 204 (image processing of the first embodiment) on a plurality of time-series images obtained by the imaging part 105 of the fine particle testing apparatus 100. This measurement result is a result of imaging bacteria cultured for 8 hours in a culture solution containing ampicillin/sulbactam at concentrations of 0.5/0.25 μg/mL and 32/16 μg/mL.

Pseudomonas aeruginosa [3] = assay: drug sensitivity test, bacterial area value from time-series microscopic images (image processing of second embodiment); conditions: cultured 12 hours, FIG. 10
Text: as §1
In the fine particle testing apparatus 100, an image is acquired by focusing the lens 104 on the vicinity of the well bottom surface of the testing plate 102 for each imaging. However, in a case where the fine particles are bacteria, in particular, highly motile bacteria, even if adjustment is performed for each imaging so as to focus on one well each time, an image with a clear contour may not be acquired, resulting in an image as illustrated in FIGS. 8A to 8B. As an example of such a case, a measurement example using Pseudomonas aeruginosa considered to have high motility as a bacterium different from the result of FIG. 9 will be described (see FIG. 10). […]

Pseudomonas aeruginosa [4] = assay: drug sensitivity test, turbidity measurement after 18 hours of culture; conditions: turbidity after 18 hours from start of culture

## ampicillin/sulbactam
Bacteria [1]; ampicillin/sulbactam 0.5/0.25 μg/mL
  sensitivity of bacterium (proliferation/suppression): proliferation
Bacteria [1]; ampicillin/sulbactam 32/16 μg/mL
  sensitivity of bacterium (proliferation/suppression): suppression
Bacteria [2]; ampicillin/sulbactam 0.5/0.25 μg/mL, cultured 8 hours
  bacterial area value over time: starts to increase exponentially after 2 hours from the start of culture
Bacteria [2]; ampicillin/sulbactam 32/16 μg/mL, within 8 hours from start of culture
  bacterial area value over time: substantially unchanged from the initial value

## gentamicin
Pseudomonas aeruginosa [3]; gentamicin 0.12 μg/mL
  bacterial area value over time: starts to increase exponentially after 4 hours from the start of culture
Pseudomonas aeruginosa [3]; gentamicin 8 μg/mL
  bacterial area value over time: slightly increases
Pseudomonas aeruginosa [4]; gentamicin 0.12 μg/mL
  sensitivity of bacterium (proliferation/suppression): proliferation
Pseudomonas aeruginosa [4]; gentamicin 8 μg/mL
  sensitivity of bacterium (proliferation/suppression): suppression
